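Exposure lasted 48 hours, with cells grown in 96-well plates and compounds tested at five concentrations. GI50 marks 50% less growth. TGI: concentration producing complete growth inhibition.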
Assays:
Assay in all cases: DTP human tumour cell line panel, 48 h
SN12C renal = tested on: SN12C renal
SNB-75 CNS = tested on: SNB-75 CNS
HOP-62 NSCLC = tested on: HOP-62 NSCLC
OVCAR-8 ovarian = tested on: OVCAR-8 ovarian
A498 renal = tested on: A498 renal
MALME-3M melanoma = tested on: MALME-3M melanoma
UO-31 renal = tested on: UO-31 renal
MDA-MB-231 breast = tested on: MDA-MB-231 breast
BT-549 breast = tested on: BT-549 breast
SK-MEL-2 melanoma = tested on: SK-MEL-2 melanoma
HCC-2998 colon = tested on: HCC-2998 colon
K-562 leukemia = tested on: K-562 leukemia
KM12 colon = tested on: KM12 colon
SW-620 colon = tested on: SW-620 colon
HCT-116 colon = tested on: HCT-116 colon
T-47D breast = tested on: T-47D breast
SK-OV-3 ovarian = tested on: SK-OV-3 ovarian
MDA-MB-435 = tested on: MDA-MB-435
SK-MEL-5 melanoma = tested on: SK-MEL-5 melanoma
NCI/ADR-RES ovarian = tested on: NCI/ADR-RES ovarian
CAKI-1 renal = tested on: CAKI-1 renal
NCI-H226 lung = tested on: NCI-H226 lung
RPMI-8226 leukemia = tested on: RPMI-8226 leukemia
OVCAR-3 ovarian = tested on: OVCAR-3 ovarian
EKVX NSCLC = tested on: EKVX NSCLC
OVCAR-5 ovarian = tested on: OVCAR-5 ovarian
SNB-19 CNS = tested on: SNB-19 CNS
MCF7 breast = tested on: MCF7 breast
PC-3 prostate = tested on: PC-3 prostate
SR leukemia = tested on: SR leukemia
LOX IMVI melanoma = tested on: LOX IMVI melanoma
UACC-62 melanoma = tested on: UACC-62 melanoma
IGROV1 ovarian = tested on: IGROV1 ovarian
U251 CNS = tested on: U251 CNS
TK-10 renal = tested on: TK-10 renal
HOP-92 NSCLC = tested on: HOP-92 NSCLC
NCI-H23 lung = tested on: NCI-H23 lung
HT29 colon = tested on: HT29 colon
SF-295 CNS = tested on: SF-295 CNS
OVCAR-4 ovarian = tested on: OVCAR-4 ovarian
NCI-H522 lung = tested on: NCI-H522 lung
SF-539 CNS = tested on: SF-539 CNS
HL-60(TB) leukemia = tested on: HL-60(TB) leukemia
DU-145 prostate = tested on: DU-145 prostate
UACC-257 melanoma = tested on: UACC-257 melanoma
MDA-N = tested on: MDA-N
RXF 393 renal = tested on: RXF 393 renal
SK-MEL-28 melanoma = tested on: SK-MEL-28 melanoma
MOLT-4 leukemia = tested on: MOLT-4 leukemia
HS 578T breast = tested on: HS 578T breast
M14 melanoma = tested on: M14 melanoma
COLO 205 colon = tested on: COLO 205 colon
ACHN renal = tested on: ACHN renal
HCT-15 colon = tested on: HCT-15 colon
A549 NSCLC = tested on: A549 NSCLC
SF-268 CNS = tested on: SF-268 CNS
786-0 renal = tested on: 786-0 renal
CCRF-CEM leukemia = tested on: CCRF-CEM leukemia
NCI-H460 lung = tested on: NCI-H460 lung

C[n+]1noc(/N=N\[O-])c1-c1cc(-c2c(/N=N\[O-])on[n+]2C)cc(-c2c(/N=N/[O-])on[n+]2C)c1
TGI (SN12C renal): > 100 µM
TGI (SNB-75 CNS): > 100 µM
TGI (HOP-62 NSCLC): > 100 µM
TGI (OVCAR-8 ovarian): > 100 µM
TGI (A498 renal): > 100 µM
TGI (MALME-3M melanoma): > 100 µM
TGI (UO-31 renal): > 100 µM
TGI (MDA-MB-231 breast): > 100 µM
TGI (BT-549 breast): > 100 µM
TGI (SK-MEL-2 melanoma): > 100 µM
TGI (HCC-2998 colon): > 100 µM
TGI (K-562 leukemia): > 100 µM
TGI (KM12 colon): > 100 µM
TGI (SW-620 colon): > 100 µM
TGI (HCT-116 colon): > 100 µM
TGI (T-47D breast): > 100 µM
TGI (SK-OV-3 ovarian): > 100 µM
TGI (MDA-MB-435): > 100 µM
TGI (SK-MEL-5 melanoma): > 100 µM
TGI (NCI/ADR-RES ovarian): > 100 µM
TGI (CAKI-1 renal): > 100 µM
TGI (NCI-H226 lung): > 100 µM
TGI (RPMI-8226 leukemia): > 100 µM
TGI (OVCAR-3 ovarian): > 100 µM
TGI (EKVX NSCLC): > 100 µM
TGI (OVCAR-5 ovarian): > 100 µM
TGI (SNB-19 CNS): > 100 µM
TGI (MCF7 breast): > 100 µM
TGI (PC-3 prostate): > 100 µM
TGI (SR leukemia): > 100 µM
TGI (LOX IMVI melanoma): > 100 µM
TGI (UACC-62 melanoma): > 100 µM
TGI (IGROV1 ovarian): > 100 µM
TGI (U251 CNS): > 100 µM
TGI (TK-10 renal): > 100 µM
TGI (HOP-92 NSCLC): > 100 µM
TGI (NCI-H23 lung): > 100 µM
TGI (HT29 colon): > 100 µM
TGI (SF-295 CNS): > 100 µM
TGI (OVCAR-4 ovarian): > 100 µM
TGI (NCI-H522 lung): > 100 µM
TGI (SF-539 CNS): > 100 µM
TGI (HL-60(TB) leukemia): > 100 µM
TGI (DU-145 prostate): > 100 µM
TGI (UACC-257 melanoma): > 100 µM
TGI (MDA-N): > 100 µM
TGI (RXF 393 renal): > 100 µM
TGI (SK-MEL-28 melanoma): > 100 µM
TGI (MOLT-4 leukemia): > 100 µM
TGI (HS 578T breast): > 100 µM
TGI (M14 melanoma): > 100 µM
TGI (COLO 205 colon): > 100 µM
TGI (ACHN renal): > 100 µM
TGI (HCT-15 colon): > 100 µM
TGI (A549 NSCLC): > 100 µM
TGI (SF-268 CNS): > 100 µM
TGI (786-0 renal): > 100 µM
TGI (CCRF-CEM leukemia): > 100 µM
TGI (NCI-H460 lung): > 100 µM

C#CCn1c(=O)ccn(/C(=C\C(=O)OCC)C(=O)OCC)c1=O
TGI (SN12C renal): > 58 µM
TGI (SNB-75 CNS): 39.9 µM
TGI (HOP-62 NSCLC): > 54.4 µM
TGI (OVCAR-8 ovarian): 5.42 µM
TGI (A498 renal): 36 µM
TGI (MALME-3M melanoma): 4.99 µM
TGI (UO-31 renal): 26.4 µM
TGI (MDA-MB-231 breast): 41.9 µM
TGI (BT-549 breast): 25.4 µM
TGI (SK-MEL-2 melanoma): 32.5 µM
TGI (HCC-2998 colon): 35.9 µM
TGI (K-562 leukemia): > 100 µM
TGI (KM12 colon): 48.8 µM
TGI (SW-620 colon): 5.37 µM
TGI (HCT-116 colon): 16.5 µM
TGI (T-47D breast): 12.7 µM
TGI (SK-OV-3 ovarian): > 59.9 µM
TGI (MDA-MB-435): 22.9 µM
TGI (SK-MEL-5 melanoma): 46.1 µM
TGI (NCI/ADR-RES ovarian): 33.3 µM
TGI (CAKI-1 renal): 2.4 µM
TGI (NCI-H226 lung): 40.4 µM
TGI (RPMI-8226 leukemia): > 23.9 µM
TGI (OVCAR-3 ovarian): 16.3 µM
TGI (EKVX NSCLC): 27.9 µM
TGI (OVCAR-5 ovarian): 30.9 µM
TGI (SNB-19 CNS): 36.4 µM
TGI (MCF7 breast): 9.78 µM
TGI (PC-3 prostate): 29.4 µM
TGI (SR leukemia): > 43.5 µM
TGI (LOX IMVI melanoma): > 50.5 µM
TGI (UACC-62 melanoma): 28.3 µM
TGI (IGROV1 ovarian): 29.8 µM
TGI (U251 CNS): 39.8 µM
TGI (TK-10 renal): 3.45 µM
TGI (HOP-92 NSCLC): 4.5 µM
TGI (NCI-H23 lung): 31.8 µM
TGI (HT29 colon): 4.4 µM
TGI (SF-295 CNS): 43.3 µM
TGI (OVCAR-4 ovarian): 7.3 µM
TGI (SF-539 CNS): 4.64 µM
TGI (HL-60(TB) leukemia): > 100 µM
TGI (DU-145 prostate): 31.1 µM
TGI (UACC-257 melanoma): 29.5 µM
TGI (MDA-N): 35.1 µM
TGI (RXF 393 renal): 4.84 µM
TGI (SK-MEL-28 melanoma): 25.7 µM
TGI (MOLT-4 leukemia): > 27.7 µM
TGI (HS 578T breast): 63.5 µM
TGI (M14 melanoma): 10.3 µM
GI50 (COLO 205 colon): 1.53 µM
TGI (COLO 205 colon): 3.17 µM
TGI (ACHN renal): 3.08 µM
TGI (HCT-15 colon): 6.63 µM
TGI (A549 NSCLC): 43.8 µM
TGI (SF-268 CNS): 42.4 µM
TGI (786-0 renal): 6.05 µM
TGI (CCRF-CEM leukemia): > 20.9 µM
TGI (NCI-H460 lung): 7.76 µM

— PubChem BioAssay (NCI)
